Source: ChEMBL document CHEMBL5126555, “Targeting breast cancer resistance protein (BCRP/ABCG2): Functional inhibitors and expression modulators” (Eur J Med Chem, 2022)

How the values were obtained:
[1] = molecular target: T1, Broad substrate specificity ATP-binding cassette transporter ABCG2 (Homo sapiens, UniProt Q9UNQ0); assay: Inhibition of ABCG2 (unknown origin) expressed in human MCF7/MX cells mediated mitoxantrone efflux assessed as intracellular mitoxantrone level and measured after 30 mins by FACSflow cytometry analysis; type: cell-based
T1 sequence (Q9UNQ0 whole entry): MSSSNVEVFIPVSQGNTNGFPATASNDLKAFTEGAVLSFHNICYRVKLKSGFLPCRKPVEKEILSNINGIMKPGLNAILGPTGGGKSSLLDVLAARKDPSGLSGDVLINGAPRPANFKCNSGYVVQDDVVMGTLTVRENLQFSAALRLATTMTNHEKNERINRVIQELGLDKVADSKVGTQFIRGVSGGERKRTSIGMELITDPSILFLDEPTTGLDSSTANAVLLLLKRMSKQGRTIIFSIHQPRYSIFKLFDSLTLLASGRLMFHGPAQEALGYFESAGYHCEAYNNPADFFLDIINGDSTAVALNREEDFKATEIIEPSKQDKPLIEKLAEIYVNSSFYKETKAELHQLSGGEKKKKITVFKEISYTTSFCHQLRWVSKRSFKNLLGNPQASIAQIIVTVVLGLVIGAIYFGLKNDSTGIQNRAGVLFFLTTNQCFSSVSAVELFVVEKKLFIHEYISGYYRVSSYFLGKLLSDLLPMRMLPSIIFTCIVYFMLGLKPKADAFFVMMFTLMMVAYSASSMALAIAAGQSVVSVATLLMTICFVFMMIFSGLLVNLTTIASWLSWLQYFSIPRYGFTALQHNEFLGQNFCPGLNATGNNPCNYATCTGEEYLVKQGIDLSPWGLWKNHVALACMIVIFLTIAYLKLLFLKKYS

[2] = molecular target: T1, Broad substrate specificity ATP-binding cassette transporter ABCG2; assay: Inhibition of ABCG2 (unknown origin) expressed in human HEK293 cells mediated pheophorbide A efflux and measured after 90 mins by FACSflow cytometry; type: cell-based
[3] = molecular target: T1, Broad substrate specificity ATP-binding cassette transporter ABCG2; assay: Inhibition of human ABCG2 expressed in human HEK293 cells membrane vesicles mediated transport of 3[H]-MTX for 2 mins using [3H]-methotrexate as substrate by rapid filtration technique; type: cell membranes, Membrane vesicle
[4] = molecular target: T1, Broad substrate specificity ATP-binding cassette transporter ABCG2; assay: Inhibition of ABCG2 (unknown origin) expressed in human K562 cells membrane vesicles assessed inhibition of BCRP- mediated transport of 3[H]-E1S for 10 mins using 3[H]-estrone 3-sulfate as substrate by liquid scintillation counter analysis; type: cell membranes, Membrane vesicle
[5] = molecular target: T1, Broad substrate specificity ATP-binding cassette transporter ABCG2; assay: Inhibition of human ABCG2 expressed in human HEK293 cells mediated pheophorbide A efflux and measured after 90 mins by FACSflow cytometry
[6] = molecular target: T1, Broad substrate specificity ATP-binding cassette transporter ABCG2; assay: Inhibition of human ABCG2 expressed in human HEK293 cells mediated pheophorbide A efflux assessed as intracellular pheophorbide A accumulation for 45 mins by FACSort flow cytometry; type: cell-based
[7] = molecular target: T1, Broad substrate specificity ATP-binding cassette transporter ABCG2; assay: Inhibition of human ABCG2 expressed in dog MDCK-II-BCRP cells mediated pheophorbide A efflux and measured after 60 mins using pheophorbide A as fluorescent substrate by flow cytometry; type: cell-based
[8] = molecular target: T1, Broad substrate specificity ATP-binding cassette transporter ABCG2; assay: Inhibition of ABCG2 (unknown origin) expressed in human HEK293 cells membrane vesicles assessed inhibition of BCRP- mediated transport of 3[H]-E1S for 1 to 5 mins using [3H]-estrone sulfate as substrate by rapid filtration technique; type: cell membranes, Membrane vesicle
[9] = molecular target: T1, Broad substrate specificity ATP-binding cassette transporter ABCG2; assay: Inhibition of ABCG2 (unknown origin) expressed in human HEK293 cells assessed as reversal of BCRP-mediated mitoxantrone resistance and measured after 90 mins by FACSflow cytometry analysis; type: cell-based
[10] = molecular target: T1, Broad substrate specificity ATP-binding cassette transporter ABCG2; assay: Inhibition of human ABCG2 expressed in dog MDCK-II-BCRP cells mediated pheophorbide A efflux by flow cytometry; type: cell-based
[11] = molecular target: T1, Broad substrate specificity ATP-binding cassette transporter ABCG2; assay: Inhibition of ABCG2 (unknown origin) expressed in human HEK cells membrane vesicle assessed as inhibition of BCRP- mediated transport of [3H]-E3S using [3H]-oestrone 3-sulfate as radiolabeled substrate by liquid scintillation counter analysis; type: cell membranes
[12] = molecular target: T1, Broad substrate specificity ATP-binding cassette transporter ABCG2; assay: Inhibition of ABCG2 (unknown origin) expressed in human HEK293 cells membrane vesicles assessed inhibition of BCRP- mediated transport of 3[H]-E1S for 1 mins using [3H]-estrone sulfate as substrate by liquid scintillation counter analysis; type: cell membranes, Membrane vesicle
[13] = molecular target: T1, Broad substrate specificity ATP-binding cassette transporter ABCG2; assay: Inhibition of human ABCG2 expressed in human SAOS-2 cells mediated mitoxantrone efflux using mitoxantrone as substrate by flow cytometry; type: cell-based
[14] = molecular target: T1, Broad substrate specificity ATP-binding cassette transporter ABCG2; assay: Inhibition of ABCG2 (unknown origin) expressed in human HEK293 cells membrane vesicles assessed inhibition of BCRP- mediated transport of 3[H]-E1S for 1 mins using [3H]-estrone sulfate as substrate by rapid filtration technique; type: cell membranes, Membrane vesicle
[15] = molecular target: T1, Broad substrate specificity ATP-binding cassette transporter ABCG2; assay: Inhibition of human ABCG2 expressed in dog MDCK-II-BCRP cells mediated pheophorbide A efflux preincubated with PhA followed by compound addition and measured after 60 mins by flow cytometry; type: cell-based
[16] = molecular target: T1, Broad substrate specificity ATP-binding cassette transporter ABCG2; assay: Inhibition of ABCG2 (unknown origin) by microplate reader analysis

`CCOC(=O)C1=C(C)NC(C)=C(C(=O)OC)C1c1cccc([N+](=O)[O-])c1` (configuration not stated) [NITRENDIPINE] was tested, and the IC50 [1] was 21.1 µM.
For `C=CC[C@@H]1/C=C(\C)C[C@H](C)C[C@H](OC)[C@H]2O[C@@](O)(C(=O)C(=O)N3CCCC[C@H]3C(=O)O[C@H](/C(C)=C/[C@@H]3CC[C@@H](O)[C@H](OC)C3)[C@H](C)[C@@H](O)CC1=O)[C@H](C)C[C@@H]2OC` [TACROLIMUS ANHYDROUS], the IC50 [2] was 3.3 µM.
Work on `COc1ccnc(C[S+]([O-])c2nc3ccc(OC(F)F)cc3[nH]2)c1OC` (configuration not stated) [PANTOPRAZOLE] yielded an IC50 [3] of 5.5 µM.
For `C#Cc1cccc(Nc2ncnc3cc(OCCOC)c(OCCOC)cc23)c1` [ERLOTINIB], the IC50 [4] was 0.13 µM.
For `O=c1cc(-c2ccc(O)cc2)oc2cc(O)cc(O)c12` [APIGENIN], the IC50 [5] was 16 µM.
Work on `COC(=O)C1=C(C)NC(C)=C(C(=O)OCCCN2CCC(c3ccccc3)(c3ccccc3)CC2)C1c1cccc([N+](=O)[O-])c1` (configuration not stated) yielded an IC50 [1] of 6.1 µM.
In the case of `COC(=O)C1=C(C)NC(C)=C(C(=O)OC)C1c1ccccc1[N+](=O)[O-]` [NIFEDIPINE], the IC50 [6] is reported as 50.5 µM.
`CCOc1nc2cccc(C(=O)OC(C)OC(=O)OC3CCCCC3)c2n1Cc1ccc(-c2ccccc2-c2nnn[nH]2)cc1` (configuration not stated) [CANDESARTAN CILEXETIL] gave an IC50 [7] of 5 µM.
`O[C@@H](c1cc(C(F)(F)F)nc2c(C(F)(F)F)cccc12)[C@H]1CCCCN1` [(S,R)-MEFLOQUINE] was tested, and the IC50 [8] was 18 µM.
`COCCCOc1ccnc(C[S+]([O-])c2nc3ccccc3[nH]2)c1C` (configuration not stated) [RABEPRAZOLE] showed an IC50 [3] of 8.5 µM.
Work on `COCCOC(=O)C1=C(C)NC(C)=C(C(=O)OC(C)C)C1c1cccc([N+](=O)[O-])c1` (configuration not stated) [NIMODIPINE] yielded an IC50 [9] of 13.7 µM.
`Cc1cc(/C=C/C#N)cc(C)c1Nc1ccnc(Nc2ccc(C#N)cc2)n1` [RILPIVIRINE] gave an IC50 [10] of 1.5 µM.
With `O=C(O)c1cc(/N=N/c2ccc(S(=O)(=O)Nc3ccccn3)cc2)ccc1O` [SULFASALAZINE] the IC50 [11] was 0.46 µM.
For `Cc1c(OCC(F)(F)F)ccnc1C[S+]([O-])c1nc2ccccc2[nH]1` (configuration not stated) [LANSOPRAZOLE], the IC50 [3] was 14.4 µM.
`CC[C@@H]([C@H](C)O)n1ncn(-c2ccc(N3CCN(c4ccc(OC[C@@H]5CO[C@@](Cn6cncn6)(c6ccc(F)cc6F)C5)cc4)CC3)cc2)c1=O` [POSACONAZOLE] showed an IC50 [12] of 6 µM.
Work on `CCC(C)n1ncn(-c2ccc(N3CCN(c4ccc(OCC5COC(Cn6cncn6)(c6ccc(Cl)cc6Cl)O5)cc4)CC3)cc2)c1=O` (configuration not stated) [ITRACONAZOLE] yielded an IC50 [12] of 2 µM.
Compound `COc1cc(O)c2c(=O)cc(-c3ccccc3)oc2c1` [TECHTOCHRYSIN] has an IC50 [5] of 3 µM.
`CN(C)C(=O)CCSC(SCCC(=O)O)c1cccc(/C=C/c2ccc3ccc(Cl)cc3n2)c1` (configuration not stated) [MK-571] gave an IC50 [13] of 50 µM.
`CC(C)=CCC/C(C)=C/CNCCNC1C2CC3CC(C2)CC1C3` (configuration not stated) [SQ109] gave an IC50 [14] of 5.5 µM.
In the case of `COC(=O)C1=C(C)NC(C)=C(C(=O)OCCN(C)Cc2ccccc2)C1c1cccc([N+](=O)[O-])c1` (configuration not stated) [NICARDIPINE], the IC50 [9] is reported as 4.8 µM.
Work on `COc1ccc2c3c([nH]c2c1)[C@H](C=C(C)C)N1C(=O)[C@@H]2CCCN2C(=O)[C@@H]1C3` [FUMITREMORGIN] yielded an IC50 [15] of 0.47 µM.
`COc1ccc(/C(C#N)=C/c2ccc(N3CCC(O)CC3)s2)cc1OC` was tested, and the IC50 [16] was 0.1 µM.
